In patent US20070049593A1 (priority 2004, published 2007):
Counter-ions that a name gives are not always drawn.

molecular target: T1, HCV polymerase (Hepatitis C virus genotype 1b, UniProt P26663); test: biochemical; set-up: species or system HCV BK strain
T1 construct: a region encoding NS5B (J Virol 1991 March, 65(3), 1105-13, 544 amino acids after deletion of 47 amino acids on the C-terminal); 6xHis (C); made in house; host or cells: Escherichia coli
Procedure, shortened: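 Recombinant HCV BK-strain NS5B (C-terminal 47 aa deleted, His6-tagged, E. coli), 0.5 μg/ml, run with 5 μg/ml in vitro-transcribed RNA template (polyU/3′X), ATP/GTP/CTP 50 μM, UTP 2 μM plus [3H]UTP, pH 7.5, 25° C, 90 min. TCA-precipitated RNA counted by scintillation; IC50 from activity with vs without compound.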

T1 sequence (P26663 2420-2963): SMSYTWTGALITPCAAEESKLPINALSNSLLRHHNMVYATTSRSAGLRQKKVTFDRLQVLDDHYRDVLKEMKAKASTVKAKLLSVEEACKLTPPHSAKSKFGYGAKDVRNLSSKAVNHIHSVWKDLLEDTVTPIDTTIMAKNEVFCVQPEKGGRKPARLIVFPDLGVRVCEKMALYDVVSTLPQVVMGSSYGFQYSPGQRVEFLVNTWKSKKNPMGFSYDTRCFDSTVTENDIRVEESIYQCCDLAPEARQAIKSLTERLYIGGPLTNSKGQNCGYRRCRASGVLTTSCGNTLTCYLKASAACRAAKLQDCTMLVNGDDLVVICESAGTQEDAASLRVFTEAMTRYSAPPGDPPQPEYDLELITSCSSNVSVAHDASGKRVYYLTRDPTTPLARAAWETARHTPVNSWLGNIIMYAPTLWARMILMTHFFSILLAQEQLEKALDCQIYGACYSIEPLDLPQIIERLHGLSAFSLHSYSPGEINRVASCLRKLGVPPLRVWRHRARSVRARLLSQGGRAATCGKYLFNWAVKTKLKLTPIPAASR

`COC(=O)N[C@H](COc1ccc2c(c1)OCCn1c-2c(C2CCCCC2)c2ccc(C(=O)O)cc21)Cc1ccccc1` [Example 2-49, 12-cyclohexyl-3-((S)-2-methoxycarbonylamino-3-phenylpropoxy)-6,7-dihydro-5-oxa-7a-azadibenzo[a,e]azulene-9-carboxylic acid] and `O=C(O)c1ccc2c(C3CCCCC3)c3n(c2c1)CCOc1cc(Oc2cccnc2)ccc1-3` [Example 2-29, 12-cyclohexyl-3-(pyridin-3-yloxy)-6,7-dihydro-5-oxa-7a-azadibenzo[a,e]azulene-9-carboxylic acid monohydrochloride] cannot be ordered by IC50: under 100 nM for the first, under 100 nM for the second.

`CCC1CN(CCN2CCn3c(c(C4CCCCC4)c4ccc(C(=O)O)cc43)-c3ccc(C)cc32)CCO1` (stereo not drawn) [Example 1-291, 13-cyclohexyl-5-[2-(2-ethylmorpholin-4-yl)ethyl]-3-methyl-6,7-dihydro-5H-benzo[5,6][1,4]diazepino[7,1-a]indole-10-carboxylic acid dihydrochloride] and `Cc1ccc2c(c1)N(CCN1CCCCC1)CCn1c-2c(C2CCCCC2)c2ccc(C(=O)O)cc21` [Example 1-108, 13-cyclohexyl-3-methyl-5-[2-(piperidin-1-yl)ethyl]-6,7-dihydro-5H-benzo[5,6][1,4]diazepino[7,1-a]indole-10-carboxylic acid dihydrochloride] cannot be ordered by IC50: under 100 nM for the first, under 100 nM for the second.

`O=C(O)c1ccc2c(C3CCCCC3)c3n(c2c1)CCN(CCN1CCCCC1)c1cc(F)c(F)cc1-3` [Example 1-248, 13-cyclohexyl-2,3-difluoro-5-[2-(piperidin-1-yl)ethyl]-6,7-dihydro-5H-benzo[5,6][1,4]diazepino[7,1-a]indole-10-carboxylic acid dihydrochloride] and `O=C(O)c1ccc2c(C3CCCCCC3)c3n(c2c1)CCN(CCN1CCCCC1)c1cc(Cl)ccc1-3` [Example 1-486, 3-chloro-13-cycloheptyl-5-[2-(piperidin-1-yl)ethyl]-6,7-dihydro-5H-benzo[5,6][1,4]diazepino[7,1-a]indole-10-carboxylic acid] cannot be ordered by IC50: under 100 nM for the first, under 100 nM for the second.

`CC(C)CN(C)CCN1CCn2c(c(C3CCCCC3)c3ccc(C(=O)O)cc32)-c2ccccc21` [Example 1-209, 13-cyclohexyl-5-[2-(N-isobutyl-N-methylamino)ethyl]-6,7-dihydro-5H-benzo[5,6][1,4]diazepino[7,1-a]indole-10-carboxylic acid dihydrochloride] and `COCCN1CCn2c(c(C3CCCCC3)c3ccc(C(=O)O)cc32)-c2ccc(OC)cc21` [Example 1-479, 13-cyclohexyl-3-methoxy-5-(2-methoxyethyl)-6,7-dihydro-5H-benzo[5,6][1,4]diazepino[7,1-a]indole-10-carboxylic acid] cannot be ordered by IC50: under 100 nM for the first, under 100 nM for the second.

First: O=C(O)c1ccc2c(C3CCCCC3)c3n(c2c1)Cc1ccccc1-3 [Example 5-3, 11-cyclohexyl-6H-isoindolo[2,1-a]indole-3-carboxylic acid]
Second: Cc1nc(COc2ccc3c(c2)OCCn2c-3c(C3CCCCC3)c3ccc(C(=O)O)cc32)cs1 [Example 2-34, 12-cyclohexyl-3-(2-methylthiazol-4-ylmethoxy)-6,7-dihydro-5-oxa-7a-azadibenzo[a,e]azulene-9-carboxylic acid]
The IC50 of the first is higher: 100 to 1000 nM for the first, under 100 nM for the second.

`CN1CCC(CCOc2cccc3c2OCCn2c-3c(C3CCCCC3)c3ccc(C(=O)O)cc32)CC1` [Example 2-459, 12-cyclohexyl-4-[2-(1-methylpiperidin-4-yl)ethoxy]-6,7-dihydro-5-oxa-7a-azadibenzo[a,e]azulene-9-carboxylic acid monohydrochloride] and `CCOC(=O)c1ccc(-c2cnc(C(C)(C)NC(=O)c3ccc4c(C5CCCCC5)c5n(c4c3)CCOc3cc(OC)ccc3-5)[nH]2)cc1` [Example 2-398, ethyl 4-(2-{1-[(12-cyclohexyl-3-methoxy-6,7-dihydro-5-oxa-7a-azadibenzo[a,e]azulene-9-carbonyl)amino]-1-methylethyl}-3H-imidazol-4-yl)benzoate] cannot be ordered by IC50: under 100 nM for the first, under 100 nM for the second.
